According to paper PMC7693334, “Retrospective assessment of rat liver microsomal stability at NCATS: data and QSAR models” (Scientific Reports, 2020):

Test: High-throughput single time point substrate depletion microsomal stability assay
Format: in vitro ADME
Details: Sprague-Dawley, control compounds, mean ± S.D across 600 plates, 0.5 mg/mL rat microsomal protein, 1.0 μM drug, NADPH regeneration system, pH 7.4, 37 °C, 15 min, t1/2 capped at 30 min
Procedure: Microsomal stability of the test articles was determined in a high-throughput format using the substrate depletion method. […] Sprague-Dawley was chosen because it is the most common strain used in drug discovery. Experiments were performed using a Freedom Evo 200 automated platform with a 96-channel (MCA96) head with EVOware software (version 3.2) (Tecan Inc., Männedorf, Switzerland). The system also includes an Inheco heating block and cooling block (Inheco, Munich, Germany). […] The assay incubation system consisted of 0.5 mg/mL of rat microsomal protein, 1.0 μM drug concentration, and NADPH regeneration system (containing 0.650 mM NADP + , 1.65 mM glucose 6-phosphate, 1.65 mM MgCl2, and 0.2 unit/mL G6PDH) in 100 mM phosphate buffer at pH 7.4. The incubation was carried out at 37 °C for 15 min. The reaction was quenched by adding 555 μL of acetonitrile containing 0.28 μM albendazole, an internal standard. After a 20-min centrifugation at 3000 rpm at 4 °C, 30 μL of the supernatant was transferred to an analysis plate and was diluted fivefold using 1:2 v/v acetonitrile/water. […] The raw data set was preprocessed to generate training and test data for the purpose of building and validating prediction models. […] Detailed steps involved in preprocessing the raw data set are provided in the supplementary information (Table S1).

SMILES	half-life at 1 μM (rat liver microsomes) [min]	half-life at 1 μM (microsomes) [min]
O=C1CC2(CCCC2)CC(=O)N1CCCCN1CCN(c2ncccn2)CC1 [Buspirone, buspirone]	3.8 ± 1.1	
NC(=O)N1c2ccccc2C=Cc2ccccc21 [Carbamazepine, carbamazepine]	> 30	
Cc1cc(=O)n(-c2ccccc2)n1C [Antipyrine, antipyrine]		> 30

Other lines, results leading:

half-life at 1 μM (rat liver microsomes) [min]	half-life at 1 μM (microsomes) [min]	SMILES
11.4 ± 2.6		O=C(O)Cc1ccccc1Nc1c(Cl)cccc1Cl [Diclofenac, diclofenac]
1.4 ± 0.3		CC(C)NCC(O)COc1cccc2ccccc12 (centres unmarked) [Propranolol, propranolol]
